This passage reports class results from patent publication US20050197350A1, “Novel quinoline, tetrahydroquinazoline, and pyrimidine derivatives and methods of treatment related to the use thereof” (TAISHO PHARMACEUTICAL CO., LTD., priority 2003, published 2005).

This test concerns MCH receptors. The test is described as follows: MCH receptor activity class (method not given). As to conditions: MCH receptor activity class 1-3 (percent of control at 10^-7 M or IC50).

With `COc1cc(OC)c(NC(=S)N[C@H]2CC[C@@H](Nc3nccc(N(C)C)n3)CC2)cc1Cl` [compound 2342], the class is 1 (Class 1: The value of percent of control at 10^−7 M was less than 40% or the value of IC50 was less than 50 nM.). With `C[C@@H](NC(=S)N[C@H]1CC[C@@H](Nc2nccc(N(C)C)n2)CC1)c1ccccc1` [compound 2343] the figure was 3 (Class 3 The value of percent of control at 10^−7 M was more than 60% or the value of IC50 was more than 200 nM.); with `Cc1cccc(NC(=S)N[C@H]2CC[C@@H](Nc3nccc(N(C)C)n3)CC2)c1C` [compound 2344], 3 (Class 3 The value of percent of control at 10^−7 M was more than 60% or the value of IC50 was more than 200 nM.). With `CN(C)c1ccnc(N[C@H]2CC[C@@H](NC(=S)Nc3c(F)cc(Br)cc3Br)CC2)n1` [compound 2345] the figure was 2 (Class 2: The value of percent of control at 10^−7 M was from 40% to 60% or the value of IC′50 was from 50 nM to 200 nM.).

As for `Cc1cc(Cl)cc(Cl)c1NC(=S)N[C@H]1CC[C@@H](Nc2nccc(N(C)C)n2)CC1` [compound 2346, N-(2,4-dichloro-6-methylphenyl)-N′-(cis-4-{[4-(dimethylamino)pyrimidin-2-yl]amino}cyclohexyl)thiourea], the class is on record as 2 (Class 2: The value of percent of control at 10^−7 M was from 40% to 60% or the value of IC′50 was from 50 nM to 200 nM.). With `CCOc1ccccc1NC(=S)N[C@H]1CC[C@@H](Nc2nccc(N(C)C)n2)CC1` [compound 2347] the figure was 3 (Class 3 The value of percent of control at 10^−7 M was more than 60% or the value of IC50 was more than 200 nM.); with `Cc1cccc(C(C)C)c1NC(=S)N[C@H]1CC[C@@H](Nc2nccc(N(C)C)n2)CC1` [compound 2348], 3 (Class 3 The value of percent of control at 10^−7 M was more than 60% or the value of IC50 was more than 200 nM.); with `CN(C)c1ccnc(N[C@H]2CC[C@@H](NC(=S)Nc3ccc4c(c3)OCCO4)CC2)n1` [compound 2349], 3 (Class 3 The value of percent of control at 10^−7 M was more than 60% or the value of IC50 was more than 200 nM.).

On to `CN(C)c1ccnc(N[C@H]2CC[C@@H](NC(=S)Nc3ccc4c(c3)OCO4)CC2)n1` [compound 2350], for which the class is reported as 3 (Class 3 The value of percent of control at 10^−7 M was more than 60% or the value of IC50 was more than 200 nM.).

`Cc1c(Cl)cccc1NC(=S)N[C@H]1CC[C@@H](Nc2nccc(N(C)C)n2)CC1` [compound 2351]: the class is 3 (Class 3 The value of percent of control at 10^−7 M was more than 60% or the value of IC50 was more than 200 nM.).

In the case of `CN(C)c1ccnc(N[C@H]2CC[C@@H](NC(=S)Nc3ccc(Br)cc3OC(F)(F)F)CC2)n1` [compound 2352], the class is listed as 3 (Class 3 The value of percent of control at 10^−7 M was more than 60% or the value of IC50 was more than 200 nM.).

`COc1cc(NC(=S)N[C@H]2CC[C@@H](Nc3nccc(N(C)C)n3)CC2)c(OC)cc1Cl` [compound 2353]: the class is 3 (Class 3 The value of percent of control at 10^−7 M was more than 60% or the value of IC50 was more than 200 nM.). Regarding `Cc1onc(-c2ccccc2)c1NC(=S)N[C@H]1CC[C@@H](Nc2nccc(N(C)C)n2)CC1` [compound 2354], the class is on record as 3 (Class 3 The value of percent of control at 10^−7 M was more than 60% or the value of IC50 was more than 200 nM.). With `COC(=O)c1scc(C)c1NC(=S)N[C@H]1CC[C@@H](Nc2nccc(N(C)C)n2)CC1` [compound 2356] the figure was 3 (Class 3 The value of percent of control at 10^−7 M was more than 60% or the value of IC50 was more than 200 nM.). `COC(=O)c1sccc1NC(=S)N[C@H]1CC[C@@H](Nc2nccc(N(C)C)n2)CC1` [compound 2357]: the class is recorded as 3 (Class 3 The value of percent of control at 10^−7 M was more than 60% or the value of IC50 was more than 200 nM.).

As to `CCCCc1ccc(NC(=S)N[C@H]2CC[C@@H](Nc3nccc(N(C)C)n3)CC2)c(C)c1` [compound 2358], the class is recorded as 3 (Class 3 The value of percent of control at 10^−7 M was more than 60% or the value of IC50 was more than 200 nM.). Next, `CN(C)c1cc(N[C@H]2CC[C@@H](CNC(=O)Nc3ccccc3Cl)CC2)nc2ccccc12` [compound 2359]: 3 (Class 3 The value of percent of control at 10^−7 M was more than 60% or the value of IC50 was more than 200 nM.).

In the case of `Cc1cccc(C)c1NC(=O)NC[C@H]1CC[C@@H](Nc2cc(N(C)C)c3ccccc3n2)CC1` [compound 2360], the class is reported as 3 (Class 3 The value of percent of control at 10^−7 M was more than 60% or the value of IC50 was more than 200 nM.). Next, `CN(C)c1cc(N[C@H]2CC[C@@H](CNC(=O)Nc3ccc(F)cc3F)CC2)nc2ccccc12` [compound 2361]: 3 (Class 3 The value of percent of control at 10^−7 M was more than 60% or the value of IC50 was more than 200 nM.); `CCc1cccc(C)c1NC(=O)NC[C@H]1CC[C@@H](Nc2cc(N(C)C)c3ccccc3n2)CC1` [compound 2362, N-[(cis-4-{[4-(dimethylamino)quinolin-2-yl]amino}cyclohexyl)methyl]-N′-(2-ethyl-6-methylphenyl)urea]: 2 (Class 2: The value of percent of control at 10^−7 M was from 40% to 60% or the value of IC′50 was from 50 nM to 200 nM.); `CN(C)c1cc(N[C@H]2CC[C@@H](CNC(=O)Nc3ccc(F)cc3)CC2)nc2ccccc12` [compound 2364]: 3 (Class 3 The value of percent of control at 10^−7 M was more than 60% or the value of IC50 was more than 200 nM.). Next, `CSc1ccc(NC(=O)NC[C@H]2CC[C@@H](Nc3cc(N(C)C)c4ccccc4n3)CC2)cc1` [compound 2365]: 3 (Class 3 The value of percent of control at 10^−7 M was more than 60% or the value of IC50 was more than 200 nM.); `CN(C)c1cc(N[C@H]2CC[C@@H](CNC(=O)Nc3ccccc3C(F)(F)F)CC2)nc2ccccc12` [compound 2366]: 3 (Class 3 The value of percent of control at 10^−7 M was more than 60% or the value of IC50 was more than 200 nM.); `Cc1cc(C)c(NC(=O)NC[C@H]2CC[C@@H](Nc3cc(N(C)C)c4ccccc4n3)CC2)c(C)c1` [compound 2367, N-[(cis-4-{[4-(dimethylamino)quinolin-2-yl]amino}cyclohexyl)methyl]-N′-mesitylurea]: 2 (Class 2: The value of percent of control at 10^−7 M was from 40% to 60% or the value of IC′50 was from 50 nM to 200 nM.).

For `Cc1ccccc1NC(=O)NC[C@H]1CC[C@@H](Nc2cc(N(C)C)c3ccccc3n2)CC1` [compound 2368], the class is 3 (Class 3 The value of percent of control at 10^−7 M was more than 60% or the value of IC50 was more than 200 nM.). Regarding `CN(C)c1cc(N[C@H]2CC[C@@H](CNC(=O)Nc3c(Cl)cc(Cl)cc3Cl)CC2)nc2ccccc12` [compound 2369, N-[(cis-4-{[4-(dimethylamino)quinolin-2-yl]amino}cyclohexyl)methyl]-N′-(2,4,6-trichlorophenyl)urea], the class is 1 (Class 1: The value of percent of control at 10^−7 M was less than 40% or the value of IC50 was less than 50 nM.).

`CN(C)c1cc(N[C@H]2CC[C@@H](CNC(=O)Nc3c(F)cc(Br)cc3Br)CC2)nc2ccccc12` [compound 2371, N-(2,4-dibromo-6-fluorophenyl)-N′-[(cis-4-{[4-(dimethylamino)quinolin-2-yl]amino}cyclohexyl)methyl]urea]: the class was 1 (Class 1: The value of percent of control at 10^−7 M was less than 40% or the value of IC50 was less than 50 nM.). For the compound `CCc1cccc(CC)c1NC(=O)NC[C@H]1CC[C@@H](Nc2cc(N(C)C)c3ccccc3n2)CC1` [compound 2372], the class is 2 (Class 2: The value of percent of control at 10^−7 M was from 40% to 60% or the value of IC′50 was from 50 nM to 200 nM.). Next, `CN(C)c1cc(N[C@H]2CC[C@@H](CNC(=O)Nc3c(Cl)cccc3C(F)(F)F)CC2)nc2ccccc12` [compound 2373]: 2 (Class 2: The value of percent of control at 10^−7 M was from 40% to 60% or the value of IC′50 was from 50 nM to 200 nM.); `Cc1cccc(Cl)c1NC(=O)NC[C@H]1CC[C@@H](Nc2cc(N(C)C)c3ccccc3n2)CC1` [compound 2374]: 3 (Class 3 The value of percent of control at 10^−7 M was more than 60% or the value of IC50 was more than 200 nM.); `CN(C)c1cc(N[C@H]2CC[C@@H](CNC(=O)NCc3ccccc3Cl)CC2)nc2ccccc12` [compound 2375]: 3 (Class 3 The value of percent of control at 10^−7 M was more than 60% or the value of IC50 was more than 200 nM.). With `CCc1cccc(C(C)C)c1NC(=O)NC[C@H]1CC[C@@H](Nc2cc(N(C)C)c3ccccc3n2)CC1` [compound 2376, N-[(cis-4-{[4-(dimethylamino)quinolin-2-yl]amino}cyclohexyl)methyl]-N′-(2-ethyl-6-isopropylphenyl)urea] the figure was 1 (Class 1: The value of percent of control at 10^−7 M was less than 40% or the value of IC50 was less than 50 nM.); with `CCc1ccccc1NC(=O)NC[C@H]1CC[C@@H](Nc2cc(N(C)C)c3ccccc3n2)CC1` [compound 2377], 3 (Class 3 The value of percent of control at 10^−7 M was more than 60% or the value of IC50 was more than 200 nM.); with `CN(C)c1cc(N[C@H]2CC[C@@H](CNC(=O)Nc3ccccc3I)CC2)nc2ccccc12` [compound 2378], 3 (Class 3 The value of percent of control at 10^−7 M was more than 60% or the value of IC50 was more than 200 nM.). On to `Cc1cccc(C(C)C)c1NC(=O)NC[C@H]1CC[C@@H](Nc2cc(N(C)C)c3ccccc3n2)CC1` [compound 2379], for which the class is listed as 2 (Class 2: The value of percent of control at 10^−7 M was from 40% to 60% or the value of IC′50 was from 50 nM to 200 nM.). With `CC(C)c1ccccc1NC(=O)NC[C@H]1CC[C@@H](Nc2cc(N(C)C)c3ccccc3n2)CC1` [compound 2380] the figure was 3 (Class 3 The value of percent of control at 10^−7 M was more than 60% or the value of IC50 was more than 200 nM.).
